In US20220211726A1, “UVEAL MELANOMA TREATMENT” (Katholieke Universiteit Leuven, priority 2019, published 2022):

What was measured:
[1] = tested on: uveal melanoma (UM 92.1) cell line; experiment: IncuCyte proliferation assay (% cell confluency); assay type: cell-based; conditions: UM 92.1 (GNAQ mutant), increasing concentrations of Tigecycline, 72 h, FIG. 4
Description: (§1) For IncuCyte Proliferation Assays, cells were plated in 96-well plates (TPP) at the appropriate density (between 2.5×10^3, to 1.5×10^4). Cells were treated with increasing amounts of Tigecycline or Doxycycline and cultured for 72 h. Apoptotic cells were labelled with the IncuCyte Caspase 3/7 Green Apoptosis Assay Reagent (Essen BioScience). Four images per well were taken at 2-hour intervals using an IncuCyte ZOOM system (Essen BioScience). The percentage of cell confluency and fluorescent green counts indicating apoptotic cells were measured and analysed by the IncuCyte ZOOM software.

[2] = tested on: uveal melanoma cell line (UM92.1); experiment: IncuCyte Caspase 3/7 Green apoptosis assay; assay type: cell-based; conditions: UM92.1, increasing concentrations of Tigecycline
Description: as §1

[3] = tested on: uveal melanoma PDX model Mel-077; experiment: Uveal melanoma PDX experiment, tumour volume; assay type: in vivo; conditions: Mel-077 PDX mice, Tigecycline 50 mg/kg daily i.p. monotreatment vs vehicle (DMSO), FIG. 5
Description: Tumour pieces were implanted subcutaneously in the interscapular fat pad of female NMRI nude, 4-week-old females. Once tumours reached 250 mm^3, the mice were enrolled into treatment cohorts. Mice were treated with Tigecycline (50 mg/kg) administered by daily i.p. injection. No specific randomization method was used.

CN(C)c1cc(NC(=O)CNC(C)(C)C)c(O)c2c1C[C@H]1C[C@H]3[C@H](N(C)C)C(O)=C(C(N)=O)C(=O)[C@@]3(O)C(O)=C1C2=O [Tigecycline]
cell growth (measured as % of cell confluency) [1]: significant and dose-dependent decrease in cell growth | apoptosis (activated caspase 3/7 staining) [2]: no increase in apoptosis | tumour growth / progression (tumour volume) [3]: sufficient to stabilise tumour growth and significantly delay progression
